Assay results published in paper PMC13198257, “An aerosolized dual-action autotaxin inhibitor-PPARγ agonist for the treatment of pulmonary fibrosis” (Cell Reports Medicine, 2026).

Test system: lung gene expression
Assay: RNA sequencing of lung tissue (BLM/EL244 vs BLM)
Assay type: in vivo, mouse
Settings: BLM/EL244 vs BLM
Protocol: RNA quality was assessed using an Agilent TapeStation 4150 with the High Sensitivity […] ScreenTape (Agilent), according to the manufacturer’s protocols. For library preparation, the QuantSeq 3’mRNA-Seq Library Prep Kit (Lexogen) was used according to manufacturer’s instructions. Briefly, 500 ng of RNA from each sample was used for first-strand synthesis, followed by RNA template removal, and second-strand synthesis initiated by random primers. In-line barcodes were introduced at this step, and this was followed by magnetic bead-based purification. The resulting libraries were amplified for 15 cycles and re-purified, with quantity and quality assessed on a Qubit 4 Fluorometer with the Invitrogen Qubit dsDNA HS Assay and an Agilent Tapestation 4150 with the High Sensitivity D1000 assay kit, respectively. The quantified libraries were pooled equimolarly; 50ng of total library mix was used for Adapter Conversion PCR Amplification using the Universal Library Conversion Kit (App-A), Version: V1.0 (MGI Tech Co., Ltd.), according to the manufacturer’s instructions.
The quantity and quality of the purified adapter conversion PCR (AC-PCR) product were evaluated on a Qubit 4 Fluorometer with the Invitrogen Qubit dsDNA HS Assay and on an Agilent Tapestation 4150 with the High Sensitivity D1000 assay kit, respectively. This was followed by DNA denaturation, Single-Strand Circularisation, Enzymatic Digestion, Enzymatic Digestion Product Cleanup and Quality Control steps on 1 pmol of AC-PCR product, according to the Universal Library Conversion Kit (App-A) User Manual (Version: A3).
Finally, 60 fmol of ssCirDNA were used for DNB preparation and sequencing on a DNBSEQ-G400 platform at the BSRC Alexander Fleming Genomics Facility, using a G400 App-A FCS SE100 High-throughput Sequencing Set (MGI Tech Co., Ltd.), according to the manufacturer’s instructions.
Alignment of the FASTQ files was performed against the mouse genome build mm10 using a custom Bash script.[143] Read counting on the 3′ UTRs and differential expression analysis were conducted using the metaseqR2 bioconductor package.[144] Genes corresponding to the following biotypes were excluded: polymorphic_pseudogene, processed_transcript, pseudogene, IG_V_pseudogene, misc_RNA, IG_C_gene, IG_J_gene, IG_D_gene, IG_LV_gene, TR_V_gene, TR_V_pseudogene, TEC, and processed_pseudogene. Gene counts were normalized with DESEQ[145] through metaseqR2. Genes with more than 10 counts in at least 50% of the samples were kept for further processing. For differential expression analysis, the PANDORA algorithm[146] was used to estimate a meta p-value integrating the results from the DESEQ, DESEQ2,[147] edgeR,[148] limma,[149] NBPSeq,[150] and NOISeq[151] algorithms. All additional parameters were set to default values.
Pathway enrichment analysis was performed for the Gene Ontology Biological process (BP) and Molecular Function (MF) terms through GeneCodis 4.[152] The volcano plots, scatterplots, Venn diagrams, and dot plots were generated using the ggplot2 Bioconductor package.

[1] = lung tissue of BLM-treated mice

## O=C1NC(=O)C(Cc2ccc(OCCC3CCN(C(=O)OCc4cc(Cl)cc(Cl)c4)CC3)cc2)S1 (stereo not shown) [EL244, 3,5-dichlorobenzyl 4-(2-(4-((2,4-dioxothiazolidin-5-yl)methyl)phenoxy)ethyl)piperidine-1-carboxylate]
[1]
  Synm log2 nFC: 0.84
  Synm nFC: 1.79
  Tbc1d8 log2 nFC: 1.01
  Tbc1d8 nFC: 2.01
  Tbkbp1 log2 nFC: 0.71
  Tbkbp1 nFC: 1.64
  Tgfbr3 log2 nFC: 0.83
  Tgfbr3 nFC: 1.78
  Tmcc3 log2 nFC: 0.74
  Tmcc3 nFC: 1.67
  Tmem100 log2 nFC: 0.82
  Tmem100 nFC: 1.77
  Tns2 log2 nFC: 0.77
  Tns2 nFC: 1.70
  Tppp3 log2 nFC: 0.77
  Tppp3 nFC: 1.70
  Unc45b log2 nFC: 0.77
  Unc45b nFC: 1.70
  Vpreb3 log2 nFC: 0.71
  Vpreb3 nFC: 1.63
  Vwa3b log2 nFC: 0.98
  Vwa3b nFC: 1.97
  Zfp36 log2 nFC: 0.94
  Zfp36 nFC: 1.92
Lung tissue
  Acss1 log2 nFC: 0.65
  Acss1 nFC: 1.56
  Actn1 log2 nFC: -0.60
  Actn1 nFC: 0.66
  Adam12 log2 nFC: -1.57
  Adam12 nFC: 0.34
  Adamts4 log2 nFC: -2.15
  Adamts4 nFC: 0.23
  Adamts12 log2 nFC: -1.47
  Adamts12 nFC: 0.36
  Adgre1 log2 nFC: -0.79
  Adgre1 nFC: 0.58
  Ahnak log2 nFC: 0.61
  Ahnak nFC: 1.52
  Akap12 log2 nFC: 0.65
  Akap12 nFC: 1.57
  Ankrd37 log2 nFC: -1.50
  Ankrd37 nFC: 0.35
  Anln log2 nFC: -2.01
  Anln nFC: 0.25
  Apoe log2 nFC: -0.84
  Apoe nFC: 0.56
  Arg1 log2 nFC: -2.32
  Arg1 nFC: 0.20
  Arhgef39 log2 nFC: -1.70
  Arhgef39 nFC: 0.31
  Aurka log2 nFC: -2.19
  Aurka nFC: 0.22
  Aurkb log2 nFC: -1.85
  Aurkb nFC: 0.28
  Bex3 log2 nFC: -0.75
  Bex3 nFC: 0.59
  Bhlhe40 log2 nFC: -0.85
  Bhlhe40 nFC: 0.56
  Birc5 log2 nFC: -2.03
  Birc5 nFC: 0.25
  Bmpr2 log2 nFC: 0.60
  Bmpr2 nFC: 1.52
  Brca2 log2 nFC: -1.64
  Brca2 nFC: 0.32
  Brinp1 log2 nFC: -1.85
  Brinp1 nFC: 0.28
  C1qa log2 nFC: -1.44
  C1qa nFC: 0.37
  C1qb log2 nFC: -1.51
  C1qb nFC: 0.35
  C1qc log2 nFC: -1.56
  C1qc nFC: 0.34
  C3ar1 log2 nFC: -1.58
  C3ar1 nFC: 0.33
  Capg log2 nFC: -0.82
  Capg nFC: 0.57
  Casp3 log2 nFC: -0.85
  Casp3 nFC: 0.56
  Ccdc80 log2 nFC: -1.64
  Ccdc80 nFC: 0.32
  Ccl2 log2 nFC: -1.43
  Ccl2 nFC: 0.37
  Ccl7 log2 nFC: -1.75
  Ccl7 nFC: 0.30
  Ccl8 log2 nFC: -1.54
  Ccl8 nFC: 0.34
  Ccl12 log2 nFC: -2.27
  Ccl12 nFC: 0.21
  Ccn4 log2 nFC: -2.20
  Ccn4 nFC: 0.22
  Ccna2 log2 nFC: -2.26
  Ccna2 nFC: 0.21
  Ccnb1 log2 nFC: -2.41
  Ccnb1 nFC: 0.19
  Ccnb2 log2 nFC: -1.68
  Ccnb2 nFC: 0.31
  Ccne1 log2 nFC: -2.04
  Ccne1 nFC: 0.24
  Ccnf log2 nFC: -2.02
  Ccnf nFC: 0.25
  Ccr5 log2 nFC: -1.76
  Ccr5 nFC: 0.30
  Cd63 log2 nFC: -0.76
  Cd63 nFC: 0.59
  Cd276 log2 nFC: -1.70
  Cd276 nFC: 0.31
  Cdc20 log2 nFC: -1.58
  Cdc20 nFC: 0.34
  Cdca3 log2 nFC: -1.83
  Cdca3 nFC: 0.28
  Cdca8 log2 nFC: -2.32
  Cdca8 nFC: 0.20
  Cdk1 log2 nFC: -1.99
  Cdk1 nFC: 0.25
  Cdk19 log2 nFC: -0.64
  Cdk19 nFC: 0.64
  Cdkn3 log2 nFC: -1.68
  Cdkn3 nFC: 0.31
  Cenpe log2 nFC: -1.70
  Cenpe nFC: 0.31
  Cenpf log2 nFC: -2.20
  Cenpf nFC: 0.22
  Cenph log2 nFC: -2.04
  Cenph nFC: 0.24
  Cenpk log2 nFC: -1.51
  Cenpk nFC: 0.35
  Cenpn log2 nFC: -1.74
  Cenpn nFC: 0.30
  Cenps log2 nFC: -1.80
  Cenps nFC: 0.29
  Cfp log2 nFC: -0.83
  Cfp nFC: 0.56
  Chl1 log2 nFC: -3.49
  Chl1 nFC: 0.09
  Chsy3 log2 nFC: -1.56
  Chsy3 nFC: 0.34
  Ckap2l log2 nFC: -2.06
  Ckap2l nFC: 0.24
  Ckap2 log2 nFC: -2.44
  Ckap2 nFC: 0.18
  Ckap4 log2 nFC: -0.63
  Ckap4 nFC: 0.65
  Ckb log2 nFC: -0.61
  Ckb nFC: 0.65
  Cks1b log2 nFC: -1.54
  Cks1b nFC: 0.34
  Clca3a1 log2 nFC: -2.06
  Clca3a1 nFC: 0.24
  Cldn4 log2 nFC: -1.99
  Cldn4 nFC: 0.25
  Clmp log2 nFC: -0.78
  Clmp nFC: 0.58
  Clspn log2 nFC: -1.79
  Clspn nFC: 0.29
  Clu log2 nFC: -0.81
  Clu nFC: 0.57
  Cmtm3 log2 nFC: -0.60
  Cmtm3 nFC: 0.66
  Col1a1 log2 nFC: -2.02
  Col1a1 nFC: 0.25
  Col3a1 log2 nFC: -1.54
  Col3a1 nFC: 0.34
  Col4a1 log2 nFC: -0.75
  Col4a1 nFC: 0.59
  Col4a2 log2 nFC: -0.64
  Col4a2 nFC: 0.64
  Col5a1 log2 nFC: -1.52
  Col5a1 nFC: 0.35
  Col5a2 log2 nFC: -1.48
  Col5a2 nFC: 0.36
  Col5a3 log2 nFC: -1.53
  Col5a3 nFC: 0.35
  Col6a2 log2 nFC: -0.67
  Col6a2 nFC: 0.63
  Col6a3 log2 nFC: -0.77
  Col6a3 nFC: 0.59
  Cped1 log2 nFC: 0.63
  Cped1 nFC: 1.55
  Cthrc1 log2 nFC: -2.00
  Cthrc1 nFC: 0.25
  Ctnnbip1 log2 nFC: -0.62
  Ctnnbip1 nFC: 0.65
  Ctsb log2 nFC: -0.75
  Ctsb nFC: 0.59
  Ctsh log2 nFC: -0.63
  Ctsh nFC: 0.64
  Cxcl9 log2 nFC: -1.62
  Cxcl9 nFC: 0.32
  Cxcl10 log2 nFC: -1.90
  Cxcl10 nFC: 0.27
  Cxcl12 log2 nFC: -0.67
  Cxcl12 nFC: 0.63
  Cxcl13 log2 nFC: -1.42
  Cxcl13 nFC: 0.37
  Cyth4 log2 nFC: -0.71
  Cyth4 nFC: 0.61
  Cytip log2 nFC: 0.63
  Cytip nFC: 1.54
  Ddr1 log2 nFC: -0.66
  Ddr1 nFC: 0.63
  Dnmt1 log2 nFC: -0.84
  Dnmt1 nFC: 0.56
  Dtl log2 nFC: -1.94
  Dtl nFC: 0.26
  Dtx4 log2 nFC: -0.70
  Dtx4 nFC: 0.61
  E2f8 log2 nFC: -1.57
  E2f8 nFC: 0.34
  Ect2 log2 nFC: -1.89
  Ect2 nFC: 0.27
  Efnb2 log2 nFC: 0.61
  Efnb2 nFC: 1.53
  Eln log2 nFC: -2.07
  Eln nFC: 0.24
  Emid1 log2 nFC: -0.78
  Emid1 nFC: 0.58
  Emilin1 log2 nFC: -0.84
  Emilin1 nFC: 0.56
  Emp1 log2 nFC: -0.70
  Emp1 nFC: 0.62
  Enc1 log2 nFC: -0.80
  Enc1 nFC: 0.57
  Epas1 log2 nFC: 0.67
  Epas1 nFC: 1.59
  Epb41 log2 nFC: 0.61
  Epb41 nFC: 1.52
  Espl1 log2 nFC: -1.71
  Espl1 nFC: 0.31
  Evi2a log2 nFC: -0.82
